Assay results from patent US20220170945A1, “METHOD FOR ASSISTING EVALUATION OF RENAL PATHOLOGICAL CONDITIONS, SYSTEM FOR EVALUATING RENAL PATHOLOGICAL CONDITIONS AND PROGRAM FOR EVALUATING RENAL PATHOLOGICAL CONDITIONS” (Kagami Inc., priority 2019, published 2022).

Settings: human, in vivo
Source text: According to the invention, the excretion rate (excretion) is a marker representing the degree of discharge into urine of the amount of target components that have been filtered through the glomeruli by way of the regulating function of the renal tubules (reabsorption and secretion), and it is expressed as a proportion or percentage, or in arbitrary units. The value can be calculated after excluding the effect of reabsorption or concentration of water by correction using a correction factor, and expressed as fractional excretion (FE). Since urine often has a variable concentration rate, the percentages of reabsorption and excretion of D-serine and/or D-asparagine in the kidneys of a subject may be corrected using a “correction factor” that corrects for the urine concentration rate. According to one embodiment of the invention, for example, the subject D-serine excretion rate and/or the subject D-asparagine excretion rate may be corrected by a correction factor derived from the blood and/or urine. In its most simple form, the excretion rate is expressed as a percentage of the amount of target components in urine divided by the glomerular filtration rate for the target components, and the glomerular filtration rate obtained by inulin clearance or the actually measured urinary volume, as well as the amounts of target components in blood and/or in urine, may also be used for the calculation. L-amino acid levels (preferably the levels of L-serine and/or L-asparagine) in urine may also be used as urinary volume correction factors for calculation of the D-amino acid excretion rate. Creatinine clearance, calculated by urine creatinine level or the blood creatinine level, may also be used as a correction factor, expressing the D-serine excretion rate by the following formula, for example. This may then be multiplied by 100 to obtain a percent (%).
The test protocol was approved by the ethics committee of the national research and development agency: National Institutes of Biomedical Innovation, Health and Nutrition, and written informed consent was obtained from all of the test subjects.
Sample preparation from human blood plasma and urine was carried out as follows: First a 20-fold volume of methanol was added to and completely mixed with the blood plasma. […]
The amino acid optical isomers were quantified using the following two-dimensional HPLC system. […] NBD-amino acids were detected by fluorescence detection at 530 nm using excitation light of 470 nm. The NBD-amino acid retention time was identified from standard amino acid optical isomers and quantified by a calibration curve.
The blood urine D-serine level and blood urine D-asparagine level and creatinine level were calculated by substitution into the following formulas.

Row | Compound | excretion rate after administration of ARB [%] | excretion rate before administration of ARB [%]
1 | NC(=O)C[C@@H](N)C(=O)O [D-asparagine] | 35.39 | 45.71
2 | N[C@H](CO)C(=O)O [D-serine] | 25.73 | 64.56
